{"source": "patent US9617517B2", "about": "“Small chemical compound which promotes induction of differentiation of stem cells into insulin-producing cells and method for inducing differentiation of stem cells into insulin-producing cells using said small chemical compound” (NATIONAL UNIVERSITY CORPORATION KUMAMOTO UNIVERSITY, priority 2011, dated 2017)", "key": {"differentiated ES cells [1]": {"tested_on": "differentiated ES cells", "assay": "Real time PCR of gene expression in differentiated ES cells", "format": "cell-based, mouse", "settings": "TBZ 2.5 μM"}, "differentiated ES cells [2]": {"tested_on": "differentiated ES cells", "assay": "Secreted insulin and cellular insulin content by mouse c-peptide ELISA", "format": "cell-based"}, "VMAT2KD ES cells [3]": {"tested_on": "VMAT2KD ES cells", "assay": "c-peptide amount of differentiated VMAT2KD ES cells (ELISA)", "format": "cell-based, mouse", "settings": "dBu-cAMP 0.6 μM (FIG. 12A)", "procedure": "(§1) In the Vmat2-knockdown and Drd2-knockdown assays, Expression Arrest non-silencing control shRNA (Open Biosystems, #RHS4080), Vmat2 hRNA (Open Biosystems, #RMM3981-97058457 and #RMM3981-97058458) or Drd2 hRNA (Open Biosystems, #RMM3981-9594258) lentiviral vectors were used. For virus preparation, HEK293-FT cells (Invitrogen) were seeded on a plate medium the day before transfection. After overnight culture, the cells were transfected with lentiviral vectors and ViraPower™ Lentiviral Packaging Mix (Invitrogen) using FuGENE6 Transfection Reagent (Roche) according to the manufacturer's protocol. Cells were incubated in the ES maintenance medium for 24 hours, and viral supernatants were collected. Then, SK7 cells were infected with the viral supernatants. After incubation for 24 hours, the virus-containing medium was replaced with fresh ES maintenance medium. Further 24 hours later, the infected cells were selected using […] puromycin. The surviving cells were cloned as a knockdown-cell lines.\nDifferentiated ES cells were pre-incubated for 4 hours in low glucose (5.5 mM) Dulbecco's modified minimal essential medium with 1% fetal bovine serum. […] Insulin secretion into the culture medium and insulin content of the cell lysate were measured using the mouse c-peptide ELISA kit (Shibayagi. Co. Ltd., Japan). […]"}, "VMAT2KD ES cells [4]": {"tested_on": "VMAT2KD ES cells", "assay": "Differentiation into insulin-expressing cells in vesicular monoamine transporter knock-down cell line", "format": "cell-based, mouse", "settings": "VMAT2KD cells with dBu-cAMP 0.63 μM; control = normal cells without cAMP analog (FIG. 11A)", "procedure": "as §1\nDrd2 is known as a G protein-coupled receptor activating Gαi/o protein and having an inhibiting activity against adenyl cyclase. To identify the intracellular signal transduction phenomenon by Drd2, the effect of cAMP was examined. […] This enhancement was stronger than that obtained when dBu-cAMP was added to VMAT2KD ES cells (FIG. 10). […]"}}}
{"smiles": "CCCC(=O)Nc1ncnc2c1ncn2[C@@H]1O[C@@H]2COP(=O)(O)O[C@H]2[C@H]1OC(=O)CCC", "note": "[Dibutyryl- cAMP, dibutyrate-cAMP]", "values": [{"measurement": "expression of Abcc8", "setting": "differentiated ES cells [1]; dBu-cAMP 0.6 μM (FIG. 13)", "result": "increased remarkably"}, {"measurement": "expression of Glut2", "setting": "differentiated ES cells [1]; dBu-cAMP 0.6 μM (FIG. 13)", "result": "increased remarkably"}, {"measurement": "expression of MafA", "setting": "differentiated ES cells [1]; dBu-cAMP 0.6 μM (FIG. 13)", "result": "increased slightly"}, {"measurement": "expression of Stx1", "setting": "differentiated ES cells [1]; dBu-cAMP 0.6 μM (FIG. 13)", "result": "increased slightly"}, {"measurement": "expression level of MafA, time course", "setting": "differentiated ES cells [1]; dBu-cAMP 0.6 μM from day 11, after day 13 (FIG. 15)", "result": "promoted"}, {"measurement": "expression level of Ngn3", "setting": "differentiated ES cells [1]; dBu-cAMP 0.6 μM from day 11, day 13 and day 15 (FIG. 15)", "result": "increased also"}, {"measurement": "expression level of Insulin1", "setting": "differentiated ES cells [1]; dBu-cAMP 0.6 μM from day 11, single after day 13, both after day 15 (FIG. 15)", "result": "promoted"}, {"measurement": "sugar-responsive C-peptide secretion", "setting": "differentiated ES cells [2]; dBu-cAMP 0.6 μM, no TBZ, addition days 11-17, 11-15 or 13-17, day 17 (FIG. 17)", "result": "increased in all conditions"}, {"measurement": "C-peptide secretion", "setting": "differentiated ES cells [2]; glucose concentration 27.5 mM, dBu-cAMP 0.6 μM day 11 to 17 (FIG. 18E)", "result": "C-peptide secretion was observed"}, {"measurement": "c-peptide amount of differentiated cells", "setting": "VMAT2KD ES cells [3]", "result": "large increase in the c-peptide amount"}, {"measurement": "increase of number of insulin-expressing cells", "setting": "VMAT2KD ES cells [4]", "result": 31.4, "unit": "fold"}]}
